Experimental data published in paper PMC8881469, “Molecular recognition of formylpeptides and diverse agonists by the formylpeptide receptors FPR1 and FPR2” (Nature Communications, 2022).
Read-outs that look alike come from different tables or passages of the source.

Assays:
[1] = multiple studies; cited from earlier work
FPR2 [2] = conditions: at various concentrations; cited from earlier work
Excerpt: This may be due to the coupling of Gi, which stabilizes the receptor in one active conformation. Thus, it is difficult to speculate on the specific conformational states of FPR2 associated with pro-inflammatory and pro-resolving agonists.

FPR2 R201A [3] = conditions: cited from earlier work
Excerpt: (§1) To investigate critical structural determinants for the binding of CGEN-885A, we measured the CGEN-885A-induced signaling of FPR2 with mutations of residues in the CGEN-885A-binding pocket. […] Considering the negatively charged environment of the ligand-b ...

FPR2 R205A [4] = conditions: cited from earlier work
Excerpt: as §1

FPR1 R205A = experiment: cAMP accumulation assay, HEK293 cells, Epac-based FRET biosensor H187, 1 µM forskolin; format: cell-based, human; conditions: FPR1 R205A vs wild type
Procedure: (§2) An Epac-based FRET cAMP biosensor H187 was used to measure cellular cAMP levels. The plasmid encoding H187 was transfected into HEK293 cells to make stable cells reporting intracellular cAMP levels. In brief, the H187 stable cells were seeded in poly-D-lysine treated 96-well black clear-bottom plate at 30,000 cells per well. 24 h later, cells were transiently transfected with DNA encoding the N-terminal FLAG-tagged wild-type FPR1, FPR2 or mutants at an amount of 0.1 µg DNA per well. Assays were performed 24 h after transfection. Cells were washed twice with HBSS buffer and incubated at room temperature for 30 min before the addition of forskolin to a final concentration of 1 µM. The intracellular cAMP level was measured using a multimode reader (Spark 20 M, TECAN) measuring the fluorescence emission intensity at 485 nm and 535 nm upon the excitation at 430 nm. 15 min after forskolin incubation, cells were stimulated with agonists at different concentrations and measured for additional 20 min. The FRET signal was calculated as the normalized FRET ratio of fluorescence emission at 535 nm (F535) divided by emission at 485 nm (F485). The EC50 was determined with the FRET ratio at the timepoint of 1600 s. The data analysis was performed using the nonlinear regression fit logIC50 mode in GraphPad Prism.

FPR1 D106A = experiment: as above; format: cell-based, human; conditions: FPR1 D106A vs wild type
Procedure: as §2

FPR1 R84D = experiment: as above; format: cell-based, human; conditions: FPR1 R84D vs wild type
Procedure: as §2

FPR1 R201A = experiment: as above; format: cell-based, human; conditions: FPR1 R201A vs wild type
Procedure: as §2

FPR1 Y257F = experiment: as above; format: cell-based, human; conditions: FPR1 Y257F vs wild type
Procedure: as §2

FPR1 F102H = experiment: as above; format: cell-based, human; conditions: FPR1 F102H vs wild type
Procedure: as §2

FPR1 versus FPR2 = conditions: cited from earlier work
FPR1 [5] = conditions: short formylpeptides; cited from earlier work
Excerpt: The human formylpeptide receptor (FPR) family comprises of three members, FPR1, FPR2 (also named FPRL1), and FPR3[1]. They were initially discovered and characterized as pattern recognition G protein-coupled receptors (GPCRs) to recognize peptides with N-terminal formyl methionine, which are derived from invading pathogens or host mitochondria as pathogen- or damage-associated molecular patterns (PAMPs and DAMPs)[1]–[5]. FPR1 and FPR2 share a high sequence similarity, yet they display different preferences of formylpeptides. FPR1 is a high-affinity receptor for many short formylpeptides suc ...

FPR2 R201A [6] = experiment: cAMP accumulation assay, HEK293 cells, Epac-based FRET biosensor H187, 1 µM forskolin; format: cell-based, human
Procedure: as §2

FPR2 F110A = experiment: as above; format: cell-based, human
Procedure: as §2

FPR2 R205A [7] = experiment: as above; format: cell-based, human
Procedure: as §2

FPR2 [8] = conditions: cited from earlier work
FPR2 [9] = conditions: relative to C43; cited from earlier work
Excerpt: Similar to peptide agonists, C43 causes conformational changes of residues in the activation chamber including V113^3.40 and W254^6.48 through direct interactions to activate the receptor.

FPR1 [10] = conditions: cited from earlier work

## COc1cc(F)c([C@@H]2CNC(=O)[C@H]2NC(=O)Nc2ccccc2)c(F)c1 [BMS-986235]
[1]
  pro-resolving and cardiac protective effects: pro-resolving and cardiac protective effects

## CCCCC[C@@H](O)/C=C/C=C\C=C\C=C\[C@@H](O)[C@@H](O)CCCC(=O)O [ATL, aspirin-triggered 15-epi-lipoxin A4]
FPR2 [2]
  FPR2 signaling responses: unusual biphasic signaling responses

## WKYMVm
FPR2 R201A [3]
  agonistic activity, effect of mutation R201A: much compromised agonistic activities
FPR2 R205A [4]
  agonistic activity, effect of mutation R205A: much compromised agonistic activities

## N-formyl-Met-Leu-Phe [fMLF, prototypical formylpeptide]
FPR1 R205A
  agonistic potency, effect of mutation R205A: compromised agonistic potency
FPR1 D106A
  agonistic potency, effect of mutation D106A: compromised agonistic potency
FPR1 R84D
  potency in activating FPR1, effect of mutation R84D: reduces the potency
FPR1 R201A
  agonistic potency, effect of mutation R201A: compromised agonistic potency
FPR1 Y257F
  potency in activating FPR1, effect of mutation of Y257 to FPR2 counterpart: reduced potency
FPR1 F102H
  potency in activating FPR1, effect of mutation of F102 to FPR2 counterpart: reduced potency
FPR1 versus FPR2; FPR2 relative to FPR1
  fold less potent (in terms of EC50) in inducing FPR2 signaling than FPR1: about 1000 fold
FPR1 [5]
  FPR1 affinity: high-affinity

## COc1cccc(Cc2cc(C)nn(C(C)C(=O)Nc3ccc(Br)cc3)c2=O)c1 (centres unmarked) [Compound 17b]
[1]
  pro-resolving and cardiac protective effects: pro-resolving and cardiac protective effects

## CC(C)c1c(NC(=O)Nc2ccc(Cl)cc2)c(=O)n(-c2ccccc2)n1C [C43]
FPR2 R201A [6]
  agonistic action, effect of mutation R201A: nearly undetectable agonistic action
FPR2 F110A
  agonistic action, effect of mutation F110A: nearly undetectable agonistic action
FPR2 R205A [7]
  agonistic action, effect of mutation R205A: nearly undetectable agonistic action
FPR2 [8]; small-molecule agonist
  agonist activity on FPR2: potent
FPR2 [9]
  ligand potency on alternating the para-position of the chloride group: significant loss of ligand potency
FPR1 [10]; small-molecule agonist
  agonist activity on FPR1: potent

## fMLFII [formylpeptide agonist for both FPR1 and FPR2]
FPR1 versus FPR2; FPR1 relative to FPR2
  fold higher potency in activating FPR1 than FPR2: ~ 100 fold
FPR1 versus FPR2; FPR1 vs FPR2
  affinity for FPR1 relative to FPR2: higher affinity
FPR2 [8]; formylpeptide agonist
  agonist activity on FPR2: potent
FPR1 [10]; formylpeptide agonist
  agonist activity on FPR1: potent
